Laboratory results taken from the NIST ThermoML archive (doi:10.1007/s10765-008-0535-5).
Numbers after ± are expanded uncertainties.

Assay: wn = mass fraction of the nth substance listed
Details: Liquid, Pycnometric method, w2 = 0.5111

FC(F)C(F)(F)F [pentafluoroethane] + FCF
Details | mass density [kg/m3]
268.15 K, 3423 kPa | 1190.3 ± 1.9
269.15 K, 4259 kPa | 1190.1 ± 1.9
270.15 K, 5065 kPa | 1189.9 ± 1.9
270.15 K, 5095 kPa | 1189.9 ± 1.9
270.15 K, 5157 kPa | 1190.1 ± 1.9
271.15 K, 5903 kPa | 1189.7 ± 1.9
271.15 K, 5931 kPa | 1189.7 ± 1.9
271.15 K, 5992 kPa | 1189.9 ± 1.9
272.15 K, 6740 kPa | 1189.6 ± 1.9
272.15 K, 6767 kPa | 1189.5 ± 1.9
272.15 K, 6828 kPa | 1189.7 ± 1.9
273.15 K, 7576 kPa | 1189.4 ± 1.9
273.15 K, 7602 kPa | 1189.3 ± 1.9
273.15 K, 7662 kPa | 1189.5 ± 1.9
274.15 K, 8411 kPa | 1189.2 ± 1.9
274.15 K, 8437 kPa | 1189.2 ± 1.9
274.15 K, 8496 kPa | 1189.3 ± 1.9
275.15 K, 9245 kPa | 1189 ± 1.9
275.15 K, 9272 kPa | 1189 ± 1.9
275.15 K, 9328 kPa | 1189.2 ± 1.9
276.15 K, 10082 kPa | 1188.8 ± 1.9
276.15 K, 10107 kPa | 1188.8 ± 1.9
276.15 K, 10161 kPa | 1189 ± 1.9
277.15 K, 10917 kPa | 1188.6 ± 1.9
277.15 K, 10942 kPa | 1188.6 ± 1.9
277.15 K, 10993 kPa | 1188.8 ± 1.9
278.15 K, 11753 kPa | 1188.4 ± 1.9
278.15 K, 11776 kPa | 1188.4 ± 1.9
278.15 K, 11824 kPa | 1188.6 ± 1.9
279.15 K, 12587 kPa | 1188.2 ± 1.9
279.15 K, 12611 kPa | 1188.2 ± 1.9
279.15 K, 12657 kPa | 1188.4 ± 1.9
280.15 K, 13423 kPa | 1188.1 ± 1.9
280.15 K, 13444 kPa | 1188.1 ± 1.9
280.15 K, 13488 kPa | 1188.2 ± 1.9
281.15 K, 14258 kPa | 1187.9 ± 1.9
281.15 K, 14277 kPa | 1187.9 ± 1.9
281.15 K, 14319 kPa | 1188.1 ± 1.9
282.15 K, 15091 kPa | 1187.7 ± 1.9
282.15 K, 15110 kPa | 1187.7 ± 1.9
282.15 K, 15148 kPa | 1187.9 ± 1.9
283.15 K, 15926 kPa | 1187.5 ± 1.9
283.15 K, 15943 kPa | 1187.6 ± 1.9
283.15 K, 15978 kPa | 1187.7 ± 1.9
284.15 K, 16759 kPa | 1187.4 ± 1.9
284.15 K, 16775 kPa | 1187.4 ± 1.9
284.15 K, 16808 kPa | 1187.6 ± 1.9
285.15 K, 17592 kPa | 1187.2 ± 1.9
285.15 K, 17606 kPa | 1187.2 ± 1.9
285.15 K, 17637 kPa | 1187.4 ± 1.9
286.15 K, 18423 kPa | 1187.1 ± 1.9
286.15 K, 18437 kPa | 1187.1 ± 1.9
286.15 K, 18467 kPa | 1187.2 ± 1.9
287.15 K, 19253 kPa | 1186.9 ± 1.9
287.15 K, 19268 kPa | 1186.9 ± 1.9
287.15 K, 19297 kPa | 1187.1 ± 1.9
288.15 K, 20083 kPa | 1186.7 ± 1.9
288.15 K, 20097 kPa | 1186.8 ± 1.9
288.15 K, 20124 kPa | 1186.9 ± 1.9
289.15 K, 20914 kPa | 1186.6 ± 1.9
289.15 K, 20926 kPa | 1186.6 ± 1.9
289.15 K, 20951 kPa | 1186.8 ± 1.9
290.15 K, 21743 kPa | 1186.4 ± 1.9
290.15 K, 21755 kPa | 1186.5 ± 1.9
290.15 K, 21778 kPa | 1186.6 ± 1.9
291.15 K, 22571 kPa | 1186.3 ± 1.9
291.15 K, 22583 kPa | 1186.3 ± 1.9
291.15 K, 22607 kPa | 1186.5 ± 1.9
292.15 K, 23400 kPa | 1186.2 ± 1.9
292.15 K, 23410 kPa | 1186.2 ± 1.9
292.15 K, 23433 kPa | 1186.4 ± 1.9
293.15 K, 24226 kPa | 1186 ± 1.9
293.15 K, 24236 kPa | 1186 ± 1.9
293.15 K, 24257 kPa | 1186.2 ± 1.9
294.15 K, 25053 kPa | 1185.9 ± 1.9
294.15 K, 25062 kPa | 1185.9 ± 1.9
294.15 K, 25082 kPa | 1186.1 ± 1.9
295.15 K, 25878 kPa | 1185.7 ± 1.9
295.15 K, 25887 kPa | 1185.7 ± 1.9
295.15 K, 25903 kPa | 1185.9 ± 1.9
296.15 K, 5585 kPa | 1097.9 ± 1.8
296.15 K, 5620 kPa | 1097.9 ± 1.8
296.15 K, 5667 kPa | 1097.9 ± 1.8
296.15 K, 26704 kPa | 1185.6 ± 1.9
296.15 K, 26711 kPa | 1185.6 ± 1.9
296.15 K, 26725 kPa | 1185.8 ± 1.9
297.15 K, 6213 kPa | 1097.7 ± 1.8
297.15 K, 6246 kPa | 1097.7 ± 1.8
297.15 K, 6292 kPa | 1097.7 ± 1.8
297.15 K, 27528 kPa | 1185.5 ± 1.9
297.15 K, 27534 kPa | 1185.5 ± 1.9
297.15 K, 27546 kPa | 1185.6 ± 1.9
298.15 K, 6841 kPa | 1097.5 ± 1.8
298.15 K, 6872 kPa | 1097.5 ± 1.8
298.15 K, 6917 kPa | 1097.6 ± 1.8
298.15 K, 28352 kPa | 1185.4 ± 1.9
298.15 K, 28357 kPa | 1185.3 ± 1.9
